# Legend:
# Assay type in all cases: cell-based, human
# prostate cancer cells = experiment: Cell index over time, killing of prostate cancer cells
# Excerpt: FIG. 21 is a graph illustrating cell index over time.
# MM1S cells = experiment: IncuCyte Zoom NK cell killing of MM1S; conditions: E:T 2:1 and 4:1
# Excerpt: (§1) FIGS. 7A-7B illustrate the ability of peripheral blood NK cells with or without B7-H3-TriKE to kill myeloma cells in live imaging IncuCyte Zoom assays. FIG. 7A is a graph showing the effects with effector:target (E:T) ratios of 2:1 and 4:1 on MM1S cells. FIG. 7B is a graph showing the effects with effector:target (E:T) ratios of 2:1 and 4:1 on U266 cells.
# as §1, with “8A-8D” for “7A-7B”, “8A is a graph showing the effects with effector:target (E:T) ratios of 2:1 and 4:1 on H929 cells. FIG. 8B” for “7A”, “8C is a graph showing the effects with effector:target (E:T) ratios of 2:1 and 4:1 on RPMI-8226 cells. FIG. 8D” for “7B”
# (§2) FIGS. 9A-9D illustrate the efficacy of B7-H3-TriKE with the proteasome inhibitor bortezomib (10 nM) and the immunomodulatory drug lenalidomide (5 μM). FIG. 9A is a graph showing the effect of the combination therapy on H929 cells after 48 hours. FIG. 9B is a graph showing the effect of the combination therapy on RPMI-8226 cells after 48 hours. FIG. 9C is a graph showing the effect of the combination therapy on MM1S cells after 48 hours. FIG. 9D is a graph showing the effect of the combination therapy on U266 cells after 48 hours.
# (§3) The ability of peripheral blood NK cells with or without B7-H3-TriKE to kill myeloma cells was compared in live imaging IncuCyte Zoom assays with escalating doses of TriKE. Maximal killing occurred with 3 nM concentration.
# (§4) The efficacy of B7-H3-TriKE with the proteasome inhibitor bortezomib (10 nM) and the immunomodulatory drug lenalidomide (5 μM) was also tested. Cytotoxicity curves were compared by repeated measures ANOVA and performed in triplicate.
# RPMI-8226 cells = experiment: IncuCyte Zoom NK cell killing of RPMI-8226; conditions: E:T 4:1
# Excerpt: as §1, with “8A-8D” for “7A-7B”, “8A is a graph showing the effects with effector:target (E:T) ratios of 2:1 and 4:1 on H929 cells. FIG. 8B” for “7A”, “8C is a graph showing the effects with effector:target (E:T) ratios of 2:1 and 4:1 on RPMI-8226 cells. FIG. 8D” for “7B”
# as §2, §3, §4
# A549 lung cancer cells = experiment: NK cell CD107a / IFNγ flow cytometry against A549; conditions: normal donor PBMCs, vs controls
# Excerpt: FIGS. 24A-24F illustrate that B7-H3 TriKE enhances NK cell function against lung tumor targets. FIG. 24A is a graph showing pooled analysis of proportion of NK cells from healthy donors expressing CD107a+ against A549(N=6) tumor targets. FIG. 24B is a graph showing pooled analysis of proportion of NK cells from healthy donors expressing IFNγ against A549(N=6) tumor targets. FIG. 24C is a graph showing pooled analysis of proportion of NK cells from healthy donors expressing CD107a+ against NCI-H322 (N=5) tumor targets. FIG. 24D is a graph showing pooled analysis of proportion of NK cells from healthy donors expressing IFNγ against NCI-H322 (N=5) tumor targets. FIG. 24E is a graph showing pooled proportion of NK cells from healthy donors (black bars) or lung cancer patients (white bars) expressing CD107a+ against NCI-H460 (N=7). FIG. 24F is a graph showing pooled proportion of NK cells from healthy donors (black bars) or lung cancer patients (white bars) expressing IFNγ against NCI-H460 (N=7). ** p<0.01, *** p<0.001, and **** p<0.0001.
# ADCC was measured in a flow cytometry assay by evaluating degranulation via CD107a (lysosomal-associated membrane protein LAMP-1) and intracellular IFNγ production. […] Samples were washed and evaluated in an LSRII flow cytometer (BD Biosciences, San Jose, CA, USA). […]
Substance,time to killing of prostate cancer cells after initiation of treatment (prostate cancer cells),NK cell killing of MM1S (MM1S cells),NK cell killing of RPMI-8226 (RPMI-8226 cells),NK cell activation against A549 (A549 lung cancer cells)
B7-H3 TriKE: camelid nanobodies targeting CD16 and B7-H3 joined by IL-15 and two linkers; sequence table equates the name with cam1615B7-H3,within a couple of hours,significantly enhanced killing,enhanced killing,–
"cam1615B7-H3: second-generation TriKE: humanized camelid anti-CD16 VHH, human wild-type IL-15, anti-B7-H3 mAb 376.96 scFv; SEQ ID NO:1",–,–,–,significantly and robustly improved NK cell activation
